Assay results taken from US12264299B2, “Detergent composition” (SYMRISE AG, priority 2018, dated 2025).

Test system: Corynebacterium xerosis ATCC373 and Staphylococcus aureus ATCC6538
Assay: Microbial counts on inoculated synthetic fabric after washing and drying
Format: cell-based
Conditions: comparison of groups, 24 and 72 hours results
From the text: The objective of the following examples and comparison examples has been to evaluate bactericide and bacteriostatic performance of a specific active composition (SymClariol, Symrise AG) at 0.25% and 1% in a regular fabric softener composition.
Inoculate Corynebacterium xerosis ATCC373 and Staphylococcus aureus ATCC6538 in white synthetic fabric 89% polyester and 11% elastane. SymClariol stands for 1,2-decanediol and is a commercially available product distributed by Symrise AG.
Cut the fabric in pieces of 10 cm×10 cm (100 cm^2) to be inoculate.
It was used: • Corynebacterium xerosis ATCC373 strain in saline solution 0.85% • Staphylococcus aureus ATCC6538 strain in saline solution 0.85% • Sterile Saline solution to wet the fabric • Liquid laundry detergent Tixan Ipê batch 065091 16:30 manufactured in March, 2016 and expiration date March, 2018 • Regular Fabric Softener+Active 1 (SymClariol at 0.25%) • Regular Fabric Softener+Active 2 (SymClariol at 1%) • Regular Fabric Softener Placebo • Wash machine Electrolux
All materials were analyzed before the beginning of the tests and had <10 CFU/g for bacteria and fungi and absence of pathogens. An initial wash of the tissue was carried out with the purpose of reducing the initial microbiological count and subsequent counting for a reduction confirmation of 10 CFU/g and absence of pathogens. […]

CCCCCCCCC(O)CO (stereo not shown) [SymClariol, 1,2-decanediol]
bactericide and bacteriostatic performance (in words): improved the bactericide and bacteriostatic performance
